Measurements from patent publication US11530179B2, “Amorphous solid succinylated 3-(fatty acid amido)-2-hydroxy-1 -(protected hydroxy)-propane salts and methods of making the same” (Geron Corporation, priority 2019, dated 2022).

Assays:
Format in all cases: physicochemical
[1] = Physical stability at room temperature under different relative humidity (RH); settings: for Physical stability, Observation: 20-25° C., 300 mg in uncapped scintillation vial
Description: The physical stability of the amorphous 3-(palmitoyl amido)-2-hydroxy-1-(dimethoxytriphenylmethyl hydroxy)-propane lithium salts were tested at room temperature under different relative humidity (RH). 300 mg of amorphous 3-(palmitoyl amido)-2-hydroxy-1-(dimethoxytriphenylmethyl hydroxy)-propane lithium salt was placed in uncapped scintillation vials at 11% RH, 33% RH and 75% RH for days. (Table 1)

[2] = Solubility in organic solvents; settings: most organic solvents, at or below ambient temperature
[3] = Physical form at room temperature (isolation and storage)

CCCCCCCCCCCCCCCC(=O)NCC(COC(c1ccccc1)(c1ccc(OC)cc1)c1ccc(OC)cc1)OC(=O)CCC(=O)[O-].[Li+] (stereo not drawn) [succinylated 3-(palmitoyl amido)-2-hydroxy-1-(dimethoxytriphenylmethyl hydroxy)-propane lithium salt]
Physical stability, Observation ([1]; 11% RH, examined by gently shaking once every day): Remains free-flowing solids up to 14 days* | Physical stability, Observation ([1]; 33% RH, examined by gently shaking once every day): Remains free-flowing solids up to 14 days* | Physical stability, Observation ([1]; 75% RH): Turns to sticky after 30 min | Physical stability ([1]; room temperature, up to 33% relative humidity): remained solid for an extended period of time | Solubility in organic solvents [2]: highly soluble | Physical form [3]: stable solids
